According to patent publication US9809602B2, “Compounds for treating viral infections” (INSTITUT PASTEUR KOREA, priority 2014, dated 2017):

Tested on: genotype 1/2 chimeric cell culture derived HCV (HCVcc)
Experiment: Genotype 1/2 chimeric HCVcc assay (nano-luciferase, HCV replication)
Assay type: cell-based
Conditions: Hepatitis C virus
In short: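 EC50 (replication, nano-luciferase) and CC50 (viability, cellular ATP) were determined by non-linear regression 72 h after infection with a reporter HCVcc chimera carrying genotype 1a structural and 2a JFH-1 non-structural proteins. Compound was applied to Huh-7.5 cells 2 h before inoculation.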

Structure (SMILES) | EC50 [nM]
O=C(NCCCN1CCC(N2CCCCC2)CC1)c1ccc(-c2ccc(C(F)(F)F)s2)cc1 [Compound 1137] | 100 to 1000
COc1cc(-c2ccc(C(F)(F)F)cc2)ccc1C(=O)NCCCN1CCC(N2CCCCC2)CC1 [Compound 1155] | 100 to 1000
O=S(=O)(NCCCN1CCC(N2CCCCC2)CC1)c1ccc(-c2ccc(Cl)cc2)cc1 [Compound 1099] | 100 to 1000
O=C(NCCCN1CCC(N2CCCCC2)CC1)c1ccc(-c2ccc(Cl)cc2)cc1 [Compound 1021] | 100 to 1000
Cc1ccc(-c2ccc(C(=O)NCCCN3CCC(N4CCCCC4)CC3)cc2)cc1 [Compound 1016] | 100 to 1000
O=C(NCCCN1CCC(N2CCCCC2)CC1)c1ccc(Cc2ccccc2)cc1 [Compound 1012] | 100 to 1000
O=C(NCCCN1CCC(N2CCCCC2)CC1)c1ccc(-c2ccc(F)cc2C(F)(F)F)cc1 [Compound 1133] | 100 to 1000
O=C(NCCCN1CCC(Nc2ccccc2)CC1)c1ccc(Oc2ccccc2)cc1 [Compound 1058] | 1000 to 10000
O=C(Nc1cccc(N2CCC(N3CCCCC3)CC2)c1)c1ccc(Oc2ccccc2)cc1 [Compound 1049] | 100 to 1000
O=C(NCCCN1CCC(N2CCCCC2)CC1)c1ccc(Oc2ccc(C(F)(F)F)cc2)cc1 [Compound 1111] | 100 to 1000
Cc1ccccc1-c1ccc(C(=O)NCCCN2CCC(N3CCCCC3)CC2)cc1 [Compound 1015] | 100 to 1000
O=C(NC/C=C/CN1CCC(N2CCCCC2)CC1)c1ccc(-c2ccc(C(F)(F)F)cc2)cc1 [Compound 1117] | 100 to 1000
O=C(NCCCN1CCC(N2CCCCC2)CC1)c1ccc(-c2ccc(C(F)(F)F)nc2)cc1 [Compound 1101] | 100 to 1000
Cc1cc(-c2ccc(C(F)(F)F)cc2)ccc1C(=O)NCCCN1CCC(N2CCCCC2)CC1 [Compound 1156] | 100 to 1000
CN(C)c1ccc(Oc2ccc(C(=O)NCCCN3CCC(N4CCCCC4)CC3)cc2)cc1 [Compound 1110] | 100 to 1000
O=S(=O)(NCCCN1CCC(N2CCCCC2)CC1)c1ccc(Oc2ccc(C(F)(F)F)cc2)cc1 [Compound 1094] | 100 to 1000
COc1ccccc1-c1ccc(C(=O)NCCCN2CCC(N3CCCCC3)CC2)cc1 [Compound 1017] | 1000 to 10000
O=C(NCCOCCN1CCC(N2CCCCC2)CC1)c1ccc(Oc2ccccc2)cc1 [Compound 1077] | 1000 to 10000
NC(=O)c1ccc(-c2ccc(C(=O)NCCCN3CCC(N4CCCCC4)CC3)cc2)cc1 [Compound 1129] | > 10000
COc1cc(C(=O)NCCCN2CCC(N3CCCCC3)CC2)ccc1-c1ccc(C(F)(F)F)cc1 [Compound 1115] | 100 to 1000

Same assay, conditions: Hepatitis C virus, Huh7.5, 72 h

Structure (SMILES) | EC50 [nM]
O=C(NCc1c(C(F)(F)F)sc2c1CCNC2)Nc1sc2c(c1C(=O)OCC(F)(F)F)CCCC2 [Compound 329] | < 100
Cc1sc(NC(=O)NCc2c(-n3c(C)ccc3C)sc3c2CCNC3)c(C(=O)OC2CCOC2)c1C (stereo not shown) [Compound 353] | 1000 to 10000
CCN1CCc2c(sc(-n3cccc3)c2NC(=O)Nc2sc3c(c2C(=O)OC(C)(C)C)CCCC3)C1 [Compound 105] | 1000 to 10000
CCN(C)Cc1sc(-n2cccc2)c(CNC(=O)Nc2sc3c(c2C(=O)OC(C)(C)C)CCCC3)c1C [Compound 136] | < 100
CC(C)(C)OC(=O)c1c(NC(=O)NCc2c(-n3cccc3)sc3c2CCN(CC(F)(F)F)C3)sc2c1CCCC2 [Compound 240] | < 100
CCOC(=O)c1c(NC(=O)NCc2cccc(CN(C)C)c2)sc2c1CCCC2 [Compound 102] | 100 to 1000
CC1CCc2c(sc(NC(=O)NCc3c(Br)sc4c3CCNC4)c2C(=O)OC(C)(C)C)C1 (stereo not shown) [Compound 213] | < 100
CC(C)(C)OC(=O)c1c(NC(=O)NCc2c(-c3cccc(Cl)c3)sc3c2CCNC3)sc2c1CCCC2 [Compound 180] | < 100
CCc1sc2c(c1CNC(=O)Nc1sc3c(c1C(=O)OC(C)(C)C)CCC3)CCNC2 [Compound 314] | < 100
CCOC(=O)c1c(NC(=O)NCc2c(-n3cnc(C)n3)sc3c2CCNC3)sc2c1CCCC2 [Compound 87] | 100 to 1000
CCOC(=O)c1c(NC(=O)NCc2c(-c3ccco3)sc3c2CCNC3)sc2c1CCCC2 [Compound 338] | < 100
CCOC(=O)c1c(NC(=O)NCc2c(C(F)(F)F)sc3c2CCN(CC)C3)sc2c1CCCC2 [Compound 118] | < 100
CCOC(=O)c1c(NC(=O)NCc2c(-n3cccc3)sc3c2CCN(CC(C)C)C3)sc2c1CCCC2 [Compound 27] | < 100
CCc1sc2c(c1CNC(=O)Nc1sc3c(c1C(=O)OC(C)(C)C)CCCCC3)CCNC2 [Compound 312] | < 100
CN(C)CCN1CCc2c(sc(-c3cccc(Cl)c3)c2CNC(=O)Nc2sc3c(c2C(=O)OC(C)(C)C)CCCC3)C1 [Compound 358] | < 100
CCN1CCc2c(sc(-n3cccc3)c2CNC(=O)Nc2nccs2)C1 [Compound 13] | > 10000
NC(=O)c1c(NC(=O)NCc2c(C(F)(F)F)sc3c2CCNC3)sc2c1CCCC2 [Compound 374] | 1000 to 10000
CCOC(=O)c1c(NC(=O)NCc2c(-n3cccc3)sc3c2CCCN3C(=O)OC(C)(C)C)sc2c1CCCC2 [Compound 100] | > 10000

Structure (SMILES) | EC50 [nM]
CCOC(=O)c1c(NC(=O)NCc2c(-n3cccc3)sc3c2CCN(C(C)=O)C3)sc2c1CCCC2 [Compound 20] | < 100
CC1Cc2c(sc(NC(=O)NCc3c(C(F)(F)F)sc4c3CCNC4)c2C(=O)OC(C)(C)C)C(C)C1 (stereo not shown) [Compound 266] | < 100
CCOC(=O)c1c(NC(=O)NCc2c(-n3cccc3)sc3c2CCN(C)C3)sc2c1C(C)CCC2 (stereo not shown) [Compound 152] | < 100
CCOC(=O)c1c(NC(=O)NCc2c(-n3cccc3)sc3c2CCN(CC)C3)sc2c1CCC2 [Compound 57] | < 100
CCOC(=O)c1c(NC(=O)NCc2c(-n3cccc3)sc(CN3CCOCC3)c2C)sc2c1CCCC2 [Compound 53] | < 100
CCN1CCc2c(sc(C(F)(F)F)c2CNC(=O)Nc2sc3c(c2C(=O)OC(C)(C)C)CCCCC3)C1 [Compound 303] | < 100
CCOC(=O)c1c(NC(=O)C(=O)NCc2c(-n3cccc3)sc3c2CCN(C(=O)OC(C)(C)C)C3)sc2c1CCCC2 [Compound 85] | > 10000
CCOC(=O)c1c(NC(=O)NCc2c(-n3cccc3)sc3c2CCN(Cc2ccccc2)C3)sc2c1CCCC2 [Compound 7] | < 100
CC(C)(C)OC(=O)c1c(NC(=O)NCc2c(-c3ccccc3F)sc3c2CCNC3)sc2c1CCCC2 [Compound 227] | 100 to 1000
CCOC(=O)c1c(NC(=O)NCc2c(C)sc3c2CCNC3)sc2c1CCCC2 [Compound 107] | < 100
Cc1sc(NC(=O)NCc2c(C(F)(F)F)sc3c2CCNC3)c(C(=O)OC2CCOC2)c1C (stereo not shown) [Compound 350] | < 100
CCN1CCc2c(sc(Br)c2CNC(=O)Nc2sc3c(c2C(=O)OC(C)C)CCCC3)C1 [Compound 174] | < 100
CCOC(=O)c1c(NC(=O)NCc2c(-n3cccc3)sc3c2CCN(CC)C3)sc2ccccc12 [Compound 34] | 100 to 1000
CCN1CCc2c(sc(-n3cccc3)c2CNC(=O)Nc2sc3c(c2-c2c[nH]cn2)CCCC3)C1 [Compound 95] | > 10000
CCOC(=O)c1c(NC(=O)NCc2c(-n3cccc3)sc3c2CCN(CC)C3)sc2c1CC(C)CC2C (stereo not shown) [Compound 205] | < 100
CCN1CCc2c(sc(-n3cccc3)c2CNC(=O)Nc2sc3c(c2C(=O)OC(C)(C)C)CCC(C)C3)C1 (stereo not shown) [Compound 211] | < 100
CC(C)(C)OC(=O)c1c(NC(=O)NCc2c(-c3ccc(C(=O)O)cc3F)sc3c2CCNC3)sc2c1CCCC2 [Compound 321] | 1000 to 10000
